“And” between values parts separate entries of the source, which are not always exact repeats. Identical values can stand only once.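 In this assay, cells in 96-well plates receive the compound at five concentrations for 48 hours. Endpoints are linearly interpolated between the surrounding concentrations. GI50 = concentration required for 50% inhibition of growth. TGI is the concentration that stops growth completely.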
Experiments:
Assay in all cases: NCI tumour cell line growth inhibition, 48 h
[1] = system: A498 renal
[2] = system: CCRF-CEM leukemia
[3] = system: DU-145 prostate
[4] = system: HL-60(TB) leukemia
[5] = system: MDA-MB-231 breast
[6] = system: NCI-H522 lung
[7] = system: OVCAR-3 ovarian
[8] = system: RPMI-8226 leukemia
[9] = system: SF-295 CNS
[10] = system: T-47D breast

| Compound | TGI [1] | TGI [2] | TGI [3] [µM] | TGI [4] | TGI [5] | TGI [6] | TGI [7] | TGI [8] | TGI [9] | TGI [10] [µM] | GI50 [1] | GI50 [2] | GI50 [4] | GI50 [6] | GI50 [7] | GI50 [8] | GI50 [9] | GI50 [5] |
| --- | --- | --- | --- | --- | --- | --- | --- | --- | --- | --- | --- | --- | --- | --- | --- | --- | --- | --- |
| CCC1(O)CN(CCOC)[C@H]2C[C@@H]1C(=O)c1[nH]c3ccccc3c12 (stereo partly specified) | > 100 µM | > 100 µM | > 100 | > 100 µM | > 100 µM | > 100 µM | > 100 µM | > 100 µM | > 100 µM | – | – | – | – | – | – | – | – | – |
| C/C=C\C(CC(=O)O)CC(=O)NCCC1CN(S(=O)(=O)C(F)(F)F)c2ccccc21 (stereo unspecified) | > 100 µM | > 100 µM | > 100 | – | > 100 µM | > 100 µM | > 100 µM | > 100 µM | > 100 µM | – | – | – | – | – | – | – | – | – |
| CCOC(=O)C(Cc1c(-c2[nH]c3ccccc3c2CC(NC(=O)CNC(C)=O)C(=O)OCC)[nH]c2ccccc12)NC(=O)CNC(C)=O (stereo unspecified) | > 100 µM | > 100 µM | > 100 | – | 40.6 µM | 88.8 µM | > 100 µM | > 100 µM | > 100 µM | – | – | – | – | – | – | – | – | – |
| CSc1nc2c(ncn2C2OCC(O)C(O)C2O)c(=O)[nH]1 (stereo unspecified) | > 100 µM | > 100 µM | – | > 100 µM | – | > 100 µM | > 100 µM | > 100 µM | > 100 µM | – | – | – | – | – | – | – | – | – |
| COC(=O)CNC(=O)/C=C/[C@H](O[Si](C)(C)C(C)(C)C)[C@H](/C=C/C(=O)NCC(=O)OC)O[Si](C)(C)C(C)(C)C | > 25 µM | > 25 µM | > 25 | – | > 25 µM | > 25 µM | > 25 µM | > 25 µM | > 25 µM | > 25 | – | – | – | – | – | – | – | – |
| COc1cc2cc3c4c(cc(OC)c(OC)c4c2cc1OC)CCN3C(=O)OCCBr | > 100 µM | 88.2 µM | – | > 100 µM | – | > 100 µM | > 100 µM | – | > 100 µM | – | – | – | – | – | – | – | – | – |
| COC(=O)CCc1ccc2c(c1)CC1(C2)Cc2ccc(CCC(=O)OC)cc2C1 | > 100 µM | 97.1 µM | – | 38.7 µM | > 100 µM | > 100 µM | > 100 µM | 89.7 µM | > 100 µM | > 100 | – | – | – | – | – | – | – | – |
| Cc1cccc(N2CCN(S(=O)(=O)c3ccc(Cl)cc3)C2=N)c1C | > 100 µM | – | > 100 | – | > 100 µM | – | – | > 100 µM | > 100 µM | > 100 | – | – | – | – | – | – | – | – |
| C=C1C(=O)C[C@@]23CCC[C@@]12CC(O)C3 (stereo partly specified) | > 48.9 µM | 56.2 µM | – | 49.9 µM | – | 7.55 µM | 33.7 µM | 61.3 µM | > 100 µM | – | – | – | – | – | – | – | – | – |
| C=C(CCC(C(=O)O)C1CCC2(C)C3=C(CCC12C)C1(C)CCC(O)C(C)(C)C1CC3)C(C)C (stereo unspecified) | 75.2 µM | – | > 100 | – | > 100 µM | 50.3 µM | > 100 µM | 79.7 µM | > 100 µM | > 100 | – | – | – | – | – | – | – | – |
| NC(CO)c1ccccc1 (stereo unspecified) | – | > 100 µM | – | > 100 µM | – | > 100 µM | > 100 µM | – | > 100 µM | – | – | – | – | – | – | – | – | – |
| COC1(OC)/C(=C(\N)C=O)NC(C)(C)N1O | > 100 µM | > 100 µM | > 100 | 55.9 µM | > 100 µM | > 100 µM | 97.5 µM | > 100 µM | > 100 µM | – | – | – | – | – | – | – | – | – |
| C=CCOn1c(C=C)nc2c(C)cccc21 | 17.9 µM | 3.68 µM | – | 5.1 µM | 14.8 µM | 4.87 µM | 7.51 µM | 17.1 µM | 21 µM | 7.25 | – | – | – | – | – | – | – | – |
| CNC(=O)OCC1=C(COC(=O)NC)CN(c2ccccc2)C1 | > 100 µM | > 100 µM | > 100 | – | > 100 µM | – | > 100 µM | > 100 µM | > 100 µM | > 100 | – | – | – | – | – | – | – | – |
| CC(=O)c1c(O)c(C)c(O)c2c1OC1=CC(=O)C(C(C)=O)C(=O)C12C (stereo unspecified) | 0.412 µM and 0.742 µM | 26.2 µM and 72.6 µM | – | 8.9 µM and 43 µM | – | 15.2 µM and 56.6 µM | 3.72 µM and 15.5 µM | 24.2 µM and 49.7 µM | 12.4 µM and 33.8 µM | – | 0.232 µM and 0.507 µM | 4.26 µM and 20.7 µM | 3.15 µM and 16.4 µM | 4.15 µM and 19.3 µM | 1.05 µM and 5.74 µM | 3.88 µM and 9.02 µM | 3.48 µM and 8.79 µM | – |
| C=CCN1C(=O)/C(=C/c2ccc(Cl)cc2)N=C1SC1OC(COC(C)=O)C(OC(C)=O)C(OC(C)=O)C1OC(C)=O (stereo unspecified) | > 100 µM and 73.7 µM | > 100 µM | > 100 | – | 43.6 µM and 80.9 µM | 17.8 µM and 42.9 µM | > 100 µM | > 100 µM and 46.8 µM | 54 µM and > 100 µM | 36.9 | 80.5 µM and 31.1 µM | – | – | – | – | 11.2 µM and 5.19 µM | 18.2 µM and 49.9 µM | 7.84 µM and 23.6 µM |
| CCN(CC)c1ccc(C(=C2C=CC(=[N+](CC)CC)C=C2)c2ccccc2)cc1 | – | 0.0401 µM | – | 0.0318 µM | – | 0.143 µM | – | 0.0683 µM | 0.0664 µM | – | – | – | – | – | – | – | – | – |
| C[C@@H](C[C@@H](O)[C@H](O)C(C)(C)O)[C@H]1CC=C2[C@]3(C)[C@H](O)C[C@H]4C(C)(C)[C@H](O)CC[C@]4(C)[C@H]3CC[C@@]21C | 28.5 µM | 40.8 µM | 30.8 | 40.5 µM | 27.4 µM | 28 µM | 26.2 µM | 48.2 µM | 28.6 µM | – | – | – | – | – | – | – | – | – |
| CN(C)CCNC(=O)c1cccc2c(NC(CS)C(=O)O)c3ccccc3nc12 (stereo unspecified) | – | > 100 µM | > 100 | 9.72 µM | 23.6 µM | 20.2 µM | > 100 µM | – | 28.9 µM | – | – | – | – | – | – | – | – | – |

Reference: PubChem BioAssay (NCI)
